Test system: BCAS mice
Assay: Ex-vivo MRI DTI analysis of white matter lesion in BCAS mice
Design: species or system C57BL/6J mice
Settings: 4 wks post-BCAS, vs Veh-control
Description: Clinically, most patients with intracranial atherosclerotic stenosis suffer from permanent stenosis without occlusion. Therefore, to mimic clinical atherosclerotic stenosis with permanent carotid artery (CCA) hypoperfusion, a modified BCAS model was adapted by ligating the CCA guided with a 30 gauge needle (0.31 mm diameter) in the right CCA and a 33 gauge needle (0.21 mm diameter) in the left CCA with a 4-0 silk suture. […] Next, changes of total NKCC1 (tNKCC1) protein expression were surveyed in different brain regions at 2 and 4 wks post-surgery by immunofluorescence staining (IF). […] Therefore, in the rest of the study, the investigation was focused on its association to white matter GFAP^+ astrogliosis and lesion of CC and external capsul (EC) tracks. […] However, by 2 wks post-BCAS surgery, tNKCC1 immunofluorescence intensity in the CC tracks was increased by ˜3 folds (p<0.05), and further elevated to ˜6 folds by 4 wks (p<0.05, arrowhead). Data are mean±SEM, n=4, *p<0.05, **p<0.01. […] The upregulation of tNKCC1 and GFAP protein expression in the CC is correlated, with a Pearson's correlation coefficient of r=0.9 (p<0.001). […] In contrast, no elevated tNKCC1 protein was detected either in Iba1^+ microglia/macrophages or in Olig2+ oligodendrocytes (OL) at 4 wks post-BCAS surgery (FIG. 1D). Without wishing to be bound by theory, these findings indicate that upregulation of NKCC1 expression and activity in reactive astrocytes may play a critical role in white matter inflammation, OL death, and demyelination after BCAS. Next, whether administration of SPAK inhibitor ZT-1a reduces WML and improves cognitive functions was examined. Starting at 14 days after BCAS surgery in mice (male), either vehicle DMSO (Veh, 2 ml/kg) or ZT-1a (5 mg/kg, every 72 h, i.p) was administered every 3 days, until they were sacrificed at day 35 post-BCAS (FIG. 3A). […] Motor functions are similar in all groups and average swimming speeds were not different in the Sham-, Veh- and ZT-1a-treated mice. Data are mean±SEM, n=6 (Sham and ZT-1a) or 5 (Veh), *p<0.01 vs. sham, *p<0.05 vs. Veh. After completion of the neurological function tests in the Veh-control and ZT-1a-treated BCAS cohort mice (as shown in FIG. 3A and FIG. 3B), ex-vivo brains were harvested for MRI DTI (diffusion tensor imaging) analysis of WML at 4 wks post-BCAS detected by DTI. The fractional anisotropy (FA), radial diffusivity (RD), and mean diffusivity (MD) of the CC and EC tracks were analyzed. Representative images of the DEC maps in FIG. 4A show severe loss of axonal fibers (arrowheads) in the CC and left EC of the Veh-control brains. […] These observations are consistent with changes of FA, RD, and MD values (FIG. 4B). […] Then MBP expression levels were measured in these brains by immunostaining. […]

## Cc1cc(C(C#N)c2ccc(Cl)cc2)c(Cl)cc1NC(=O)c1cc(Cl)ccc1O (stereo not shown) [1a (ZT-1a)]
5 mg/kg i.p. every 72 h, both hemispheres
  integrity of the CC and EC tracks (DEC maps): better-preserved integrity
p<0.05
  fractional anisotropy (FA) values: significantly higher
  mean diffusivity (MD) values: lower
  radial diffusivity (RD) values: lower
